This is an account of results in US8299113B2, “Bicyclic tetrahydropyrrole compounds” (Laboratorios del Dr. Esteve, S.A., priority 2006, dated 2012).

One assay addresses T1, σ1-receptor (Cavia porcellus, UniProt Q60492).
T1 construct: guinea pig brains are homogenized; from tissue; host or cells: guinea pig brain membranes
Description: Sigma-1 receptor radioligand binding, [3H](+)-pentazocine, brain membranes. The settings on record: [3H](+)-pentazocine 0.5 nM, guinea pig brain membranes; for % Binding σ1 10^−7M: compound concentration 10^−7 M; for % Binding σ1 10^−8M: compound concentration 10^−8 M. The protocol: Brain membrane preparation and binding assays for the σ1-receptor are performed as described (DeHaven-Hudkins et al., 1992) with some modifications. In brief, guinea pig brains are homogenized in 10 vols. (w/v) of Tris-HCl 50 mM 0.32 M sucrose, pH 7.4 is centrifuged at 1000 g for 10 min at 4° C. and the supernatants collected and centrifuged again at 48000 g for 15 min at 4° C. The pellet is resuspended in 10 volumes of Tris-HCl buffer (50 mM, pH 7.4), incubated at 37° C. for 30 min, and centrifuged at 48000 g for 20 min at 4° C. Following this, the pellet is resuspended in fresh Tris-HCl buffer (50 mM, pH 7.4) and stored on ice until use.
Each assay tube contain 10 μL of [^3H](+)-pentazocine (final concentration of 0.5 nM), 900 μL of the tissue suspension to a final assay volume of 1 mL and a final tissue concentration of approximately 30 mg tissue net weight/mL. […] All tubes are incubated at 37° C. for 150 min before termination of the reaction by rapid filtration over Schleicher & Schuell GF 3362 glass fibre filters [previously soaked in a solution of 0.5% polyethylenimine for at least 1 h]. Filters are then washed four times with 4 mL of cold Tris-HCl buffer (50 mM, pH 7.4). Following addition of scintillation cocktail, the samples are allowed to equilibrate overnight. The amount of bound radioactivity is determined by liquid scintillation spectrometry using a Wallac Winspectral 1414 liquid scintillation counter. Protein concentrations are determined by the method of Lowry et al. (1951).

In another assay the target is sigma 1 (σ-1) site (Homo sapiens, UniProt Q99720). To be noted: background, in words; cited from earlier work.
Another assay concerns the target sigma (σ-2) site (Homo sapiens, UniProt Q5BJF2). The settings on record: background, in words; cited from earlier work.

T1 sequence (Q60492 whole entry): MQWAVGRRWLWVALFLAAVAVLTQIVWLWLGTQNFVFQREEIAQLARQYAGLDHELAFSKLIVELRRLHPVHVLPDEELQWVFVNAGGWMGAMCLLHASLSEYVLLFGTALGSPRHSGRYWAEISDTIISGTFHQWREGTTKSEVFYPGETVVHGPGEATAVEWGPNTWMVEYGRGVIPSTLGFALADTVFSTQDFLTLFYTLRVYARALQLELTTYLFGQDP
Sequence of sigma (σ-2) site (Q5BJF2 whole entry): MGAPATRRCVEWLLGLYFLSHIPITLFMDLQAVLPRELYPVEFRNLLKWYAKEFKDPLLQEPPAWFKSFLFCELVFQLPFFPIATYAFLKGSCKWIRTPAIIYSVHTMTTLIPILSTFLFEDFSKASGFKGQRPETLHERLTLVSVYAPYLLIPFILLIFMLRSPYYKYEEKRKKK
Sequence of sigma 1 (σ-1) site (Q99720 whole entry): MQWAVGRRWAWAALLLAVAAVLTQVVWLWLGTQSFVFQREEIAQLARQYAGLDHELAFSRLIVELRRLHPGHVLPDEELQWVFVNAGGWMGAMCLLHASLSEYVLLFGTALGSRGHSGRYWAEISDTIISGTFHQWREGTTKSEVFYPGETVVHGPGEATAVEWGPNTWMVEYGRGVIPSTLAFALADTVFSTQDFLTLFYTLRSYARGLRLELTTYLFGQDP

Take `COC(=O)[C@H](c1ccccc1)N1C[C@H]2C=C(c3ccccc3)C(=O)[C@H]2C1` [Example 3]: on σ1-receptor, the “% Binding σ1 10^−7M” value amounted to 31.3% and the “% Binding σ1 10^−8M” value came to 28.0%.
The corresponding values for `COC(=O)[C@H](c1ccccc1)N1C[C@@H]2C=C(c3ccccc3)C(=O)[C@@H]2C1` [Example 4] are 32.3% and 24.8%.
The corresponding values for `CCOC(=O)[C@H](C)N1C[C@H]2C=C(c3ccccc3)C(=O)[C@H]2C1` [Example 11] are 33.2% and 25.6%.
The corresponding values for `CCOC(=O)[C@H](C)N1C[C@@H]2C=C(c3ccccc3)C(=O)[C@@H]2C1` [Example 12] are 32.4% and 16.7%.
Consider `CCCCC1=C[C@@H]2CN([C@@H](C)C(=O)OCC)C[C@@H]2C1=O` [Example 13, (2S)-ethyl2-((3aR,6aS)-5-butyloxo-1,3a,4,6a-tetrahydrocyclopenta[c]pyrrol-2(1H)-yl)propanoate], for which, at σ1-receptor, the “% Binding σ1 10^−7M” value is recorded as 26.9% and the “% Binding σ1 10^−8M” value is listed as 17.6%.
The corresponding values for `CCCCC1=C[C@H]2CN([C@@H](C)C(=O)OCC)C[C@H]2C1=O` [Example 14, (2S)-ethyl 2-((3aS,6aR)-5-butyl-4-oxo-1,3a,4,6a-tetrahydrocyclopenta[c]pyrrol-2(1H)-yl)propanoate] are 39.6% and 28.8%.
In the case of SKF 10047, the “affinity for the sigma 1 (σ-1) site” value on sigma 1 (σ-1) site is reported as “nanomolar”. In addition, the “affinity for the sigma (σ-2) site” value at sigma (σ-2) site is recorded as “micromolar”.
